Source: patent US20040097595A1, “Phthalamide derivatives, insecticides for agricultural and horticultural use and method for application thereof” (priority 2001, published 2004)

Legend:
[1] = system: Common Cutworm (Spodoptera litura); assay: Test Example 2: insecticidal effect on common cutworm, cabbage leaf immersion; format: in vivo; conditions: cabbage leaf immersed, second-instar larvae, eight days after inoculation, 25° C.
From the text: Insecticidal Effect on Common Cutworm (Spodoptera litura)
A piece of cabbage leaf (cultivar; Shikidori) was immersed for about 30 seconds in a liquid chemical prepared by diluting a preparation containing each compound listed in Table 1 or 2 as an active ingredient to adjust the prescribed concentration. After air-dryness, it was placed in a plastic Petri dish with a diameter of 9 cm and inoculated with second-instar larvae of common cutworm, after which the dish was closed and then allowed to stand in a room thermostatted at 25° C. Eight days after the inoculation, the dead and alive were counted. The mortality was calculated according to the following equation and the insecticidal effect was judged according to the criterion shown in Test Example 1. The test was carried out with triplicate groups of 10 insects. [formula]

[2] = system: Diamond Back Moth (Plutella xylostella); assay: Test Example 1: insecticidal effect on diamond back moth, Chinese cabbage seedling with eggs immersed in liquid chemical; format: in vivo; conditions: eggs on Chinese cabbage seedling immersed about 30 seconds, six days after immersion, 25° C.
From the text: Insecticidal Effect on Diamond Back Moth (Plutella xylostella)
Adult diamond back moths were released and allowed to oviposit on a Chinese cabbage seedling. Two days after the release, the seedling having the eggs deposited thereon was immersed for about 30 seconds in a liquid chemical prepared by diluting a preparation containing each compound listed in Table 1 or 2 as an active ingredient to adjust the prescribed concentration. After air-dryness, it was allowed to stand in a room thermostatted at 25° C. Six days after the immersion, the hatched insects were counted. The mortality was calculated according to the following equation and the insecticidal effect was judged according to the criterion shown below. The test was carried out with triplicate groups of 10 insects. [formula]

Compound | Test Example 2 insecticidal effect (mortality grade) ([1]; 5 ppm) | Test Example 2 insecticidal effect (mortality grade) ([1]; 50 ppm) | Test Example 1 insecticidal effect (mortality grade) ([2]; 5 ppm) | Test Example 1 insecticidal effect (mortality grade) ([2]; 50 ppm) | mortality at 5 ppm ([1]; Spodoptera litura, 192 h, 5 ppm, read-out: Test Example 2 insecticidal effect (mortality grade)) [%] | mortality at 50 ppm ([1]; Spodoptera litura, 192 h, 50 ppm, read-out: Test Example 2 insecticidal effect (mortality grade)) [%] | mortality at 5 ppm ([2]; Plutella xylostella, 144 h, 5 ppm, read-out: Test Example 1 insecticidal effect (mortality grade)) [%] | mortality at 50 ppm ([2]; Plutella xylostella, 144 h, 50 ppm, read-out: Test Example 1 insecticidal effect (mortality grade)) [%]
CC(C)(CS(C)(=O)=O)NC(=O)c1c(I)cccc1C(=O)Nc1ccc(C(F)(F)F)cc1Cl [Compound 1-22] | C (Mortality 89-80%) | A (Mortality 100%) | A (Mortality 100%) | A (Mortality 100%) |  |  |  | 
CSCC(C)(C)NC(=O)c1c(I)cccc1C(=O)Nc1ccc(OC(F)(F)Cl)cc1Cl [Compound 1-48] | A (Mortality 100%) | A (Mortality 100%) | A (Mortality 100%) | A (Mortality 100%) |  |  |  | 
CC(C)(CS(C)(=O)=O)NC(=O)c1c(I)cccc1C(=O)Nc1ccc(OC(F)F)c(Cl)c1Cl [Compound 1-45] | E (Mortality 49-0%) | A (Mortality 100%) | A (Mortality 100%) | A (Mortality 100%) |  |  |  | 
CSCC(C)(C)NC(=O)c1c(I)cccc1C(=O)Nc1ccc(OC(C(F)(F)F)C(F)(F)F)cc1Cl [Compound 1-64] | A (Mortality 100%) | A (Mortality 100%) | A (Mortality 100%) | A (Mortality 100%) |  |  |  | 
CSCC(C)(C)NC(=O)c1c(I)cccc1C(=O)Nc1ccc(C(F)(F)F)cc1Cl [Compound 1-20] | A (Mortality 100%) | A (Mortality 100%) | A (Mortality 100%) | A (Mortality 100%) |  |  |  | 
C[S+]([O-])CC(C)(C)NC(=O)c1c(I)cccc1C(=O)Nc1ccc(C(F)(F)F)cc1Cl (centres unmarked) [Compound 1-21] | C (Mortality 89-80%) | A (Mortality 100%) | A (Mortality 100%) | A (Mortality 100%) |  |  |  | 
C[S+]([O-])CC(C)(C)NC(=O)c1c(I)cccc1C(=O)Nc1ccc(OC(F)(F)C(F)OC(F)(F)F)cc1Cl (centres unmarked) [Compound 1-75] | E (Mortality 49-0%) | A (Mortality 100%) | A (Mortality 100%) | A (Mortality 100%) |  |  |  | 
C[S+]([O-])CC(C)(C)NC(=O)c1c(I)cccc1C(=O)Nc1ccc(OC(F)(F)F)cc1Cl (centres unmarked) [Compound 1-52, N^1-[2-chloro-4-(trifluoromethoxy)phenyl]-N^2-(1,1-dimethyl-2methylsulfinylethyl)-3-iodophthalamide] |  |  |  |  | 100 | 100 | 100 | 100
CSCC(C)(C)NC(=O)c1c(I)cccc1C(=O)Nc1ccc(Oc2c(Cl)cc(C(F)(F)F)c(F)c2Cl)cc1Cl [Compound 1-93] | E (Mortality 49-0%) | C (Mortality 89-80%) | A (Mortality 100%) | A (Mortality 100%) |  |  |  | 
CC(C)(CS(C)(=O)=O)NC(=O)c1c(I)cccc1C(=O)Nc1ccc(OC(F)(F)C(F)C(F)(F)F)cc1Cl (centres unmarked) [Compound 1-68] | E (Mortality 49-0%) | A (Mortality 100%) | A (Mortality 100%) | A (Mortality 100%) |  |  |  | 
C[S+]([O-])CC(C)(C)NC(=O)c1c(I)cccc1C(=O)Nc1ccc(OC(F)(F)C(F)C(F)(F)F)c(Cl)c1Cl (centres unmarked) [Compound 1-70] | E (Mortality 49-0%) | A (Mortality 100%) | A (Mortality 100%) | A (Mortality 100%) |  |  |  | 
CSCC(C)(C)NC(=O)c1c(I)cccc1C(=O)Nc1ccc(OC(F)(F)C(F)OC(F)(F)C(F)(F)C(F)(F)F)c(Cl)c1Cl (centres unmarked) [Compound 1-84] | E (Mortality 49-0%) | A (Mortality 100%) | E (Mortality 49-0%) | A (Mortality 100%) |  |  |  | 
C[S+]([O-])CC(C)(C)NC(=O)c1c(I)cccc1C(=O)Nc1ccc(OC(F)(F)C(F)C(F)(F)F)cc1Cl (centres unmarked) [Compound 1-67] | E (Mortality 49-0%) | A (Mortality 100%) | A (Mortality 100%) | A (Mortality 100%) |  |  |  | 
CC(C)(CS(C)(=O)=O)NC(=O)c1c(I)cccc1C(=O)Nc1ccc(OC(F)(F)C(F)OC(F)(F)C(F)(F)C(F)(F)F)c(Cl)c1Cl (centres unmarked) [Compound 1-86] | D (Mortality 79-50%) | A (Mortality 100%) | A (Mortality 100%) | A (Mortality 100%) |  |  |  | 
CSCC(C)(C)NC(=O)c1c(I)cccc1C(=O)Nc1ccc(OC(F)(F)C(F)OC(F)(F)C(F)(F)C(F)(F)F)cc1Cl (centres unmarked) [Compound 1-81] | A (Mortality 100%) | A (Mortality 100%) | A (Mortality 100%) | A (Mortality 100%) |  |  |  | 
CSCC(C)(C)NC(=O)c1c(I)cccc1C(=O)Nc1ccc(S(=O)(=O)C(F)(F)F)cc1Cl [Compound 1-111] | E (Mortality 49-0%) | A (Mortality 100%) | A (Mortality 100%) | A (Mortality 100%) |  |  |  | 
CC(C)(CS(C)(=O)=O)NC(=O)c1c(I)cccc1C(=O)Nc1ccc(OC(F)(F)C(F)OC(F)(F)F)cc1Cl (centres unmarked) [Compound 1-76] | E (Mortality 49-0%) | A (Mortality 100%) | A (Mortality 100%) | A (Mortality 100%) |  |  |  | 
CC(C)(CS(C)(=O)=O)NC(=O)c1c(I)cccc1C(=O)Nc1ccc(OC(F)(F)C(F)OC(F)(F)C(F)(F)C(F)(F)F)cc1Cl (centres unmarked) [Compound 1-83] | A (Mortality 100%) | A (Mortality 100%) | A (Mortality 100%) | A (Mortality 100%) |  |  |  | 
C[S+]([O-])CC(C)(C)NC(=O)c1c(I)cccc1C(=O)Nc1ccc(OC(F)(F)C(F)OC(F)(F)C(F)(F)C(F)(F)F)c(Cl)c1Cl (centres unmarked) [Compound 1-85] | E (Mortality 49-0%) | A (Mortality 100%) | A (Mortality 100%) | A (Mortality 100%) |  |  |  | 
CC(C)(CS(C)(=O)=O)NC(=O)c1c(I)cccc1C(=O)Nc1ccc(OC(F)(F)C(F)C(F)(F)F)c(Cl)c1Cl (centres unmarked) [Compound 1-71] | E (Mortality 49-0%) | A (Mortality 100%) | A (Mortality 100%) | A (Mortality 100%) |  |  |  | 
